US6946459B2, “CRYSTALLINE FORMS OF 1S-[1ALPHA(2S*,3R*), 9ALPHA]6, 10-DIOXO-N-(2-ETHOXY-5-OXO-TETRAHYDRO-3-FURANYL)-9[[(1-ISOQUINOLYL) CARBONYL]AMINO]OCTAHYDRO-6H-PIRIDAZINO[1,2-A][1,2]DIAZEPIN-1-CARBOXAMIDE” (Aventis Pharma S. A., priority 1998, dated 2005)
Entries after “also recorded” stand apart in the source; their conditions may differ.

Assays:
[1] = Hygroscopicity curve (water sorption isotherm), Dynamic Vapor Sorption DVS 1; type: physicochemical; set-up: Sorption / Desorption: unit not given here; conditions: for Hygroscopicity (in words): sorption cycle / general statement
Experimental: Hygroscopicity Curve (or Water Sorption Isotherm)
The water sorption isotherms were obtained using a Dynamic Vapor Sorption DVS 1 device (Surface Measurements System Ltd) at a constant temperature and under a more or less hydrated nitrogen atmosphere. The degree of relative humidity (RH) of the atmosphere was modified in stages. The passage from one stage to the next is carried out when the weight of the sample to be analyzed has reached a constant value.

[2] = Sample left 7 days in a chamber at 96% relative humidity (32° C.); type: physicochemical; conditions: 7 days at 96% relative humidity; for Hygroscopicity (in words): compared with form A
Experimental: The non-hygroscopicity was confirmed by leaving a sample for 7 days in a chamber at 96% relative humidity (at 32° C.) An absorption of water of approximately 0.15% was observed. […] The same situation pertains regarding the amorphous form.

[3] = RH 0.0 %, water sorption isotherm, constant temperature
[4] = RH 0.0 %, water sorption isotherm, constant temperature, water uptake (%)

| SMILES | Desorption [1, 3] | Sorption [1, 4] | Desorption ([1]; RH 12.0 %) | Sorption ([1]; RH 12.0 %) | Desorption ([1]; RH 21.0 %) | Sorption ([1]; RH 21.0 %) | Desorption ([1]; RH 32.0 %) | Sorption ([1]; RH 32.0 %) | Desorption ([1]; RH 43.0 %) | Sorption ([1]; RH 43.0 %) | Desorption ([1]; RH 51.0 %) | Sorption ([1]; RH 51.0 %) | Desorption ([1]; RH 57.0 %) | Sorption ([1]; RH 57.0 %) | Desorption ([1]; RH 66.0 %) | Sorption ([1]; RH 66.0 %) | Desorption ([1]; RH 75.0 %) | Sorption ([1]; RH 75.0 %) | Desorption ([1]; RH 80.0 %) | Sorption ([1]; RH 80.0 %) | also measured |
| --- | --- | --- | --- | --- | --- | --- | --- | --- | --- | --- | --- | --- | --- | --- | --- | --- | --- | --- | --- | --- | --- |
| CCO[C@@H]1OC(=O)C[C@@H]1NC(=O)[C@@H]1CCCN2C(=O)CC[C@H](NC(=O)c3nccc4ccccc34)C(=O)N12 [AMORPHOUS, 1S-[1alpha(2R, 3S), 9alpha]6, 10-dioxo-N-(2-ethoxy-5-oxo-tetrahydro-3-furanyl)-9[[(1-isoquinolyl)carbonyl]amino]octahydro-6H-pyridazino[1,2-a][1, 2]diazepin-1-carboxamide, reference compound] | −0.20 | 0.00 | 1.43 | 0.67 | 2.09 | 0.97 | 2.58 | 1.29 | 2.94 | 1.60 | 3.19 | 1.83 | 3.35 | 2.03 | 3.61 | 2.37 | 3.90 | 2.90 | 4.12 | 3.71 | Desorption ([1]; RH 90.0 %): 4.94; Sorption ([1]; RH 90.0 %): 5.11; Desorption ([1]; RH 96.0 %): 5.93; Sorption ([1]; RH 96.0 %): 5.93; Hygroscopicity (in words) ([1]; listed as Compound (I)): hygroscopic; Hygroscopicity (in words) [2]: more hygroscopic |
| CCO[C@@H]1OC(=O)C[C@@H]1NC(=O)[C@@H]1CCCN2C(=O)CC[C@H](NC(=O)c3nccc4ccccc34)C(=O)N12 [form A] | 0.11 | 0.00 | 0.12 | 0.03 | 0.14 | 0.05 | 0.19 | 0.07 | 0.21 | 0.09 | 0.22 | 0.11 | 0.21 | 0.13 | 0.21 | 0.14 | 0.21 | 0.14 | 0.21 | 0.16 | Desorption ([1]; RH 90.0 %): 0.19; Sorption ([1]; RH 90.0 %): 0.14; Desorption ([1]; RH 96.0 %): 0.06; Sorption ([1]; RH 96.0 %): 0.06; Hygroscopicity (in words) [1]: absence of hygroscopicity; also recorded: not hygroscopic; Water uptake during the sorption cycle ([1]; whole sorption cycle, RH 0 to 96 %): < 0.2%; Absorption of water [2]: approximately 0.15% |
| CCO[C@@H]1OC(=O)C[C@@H]1NC(=O)[C@@H]1CCCN2C(=O)CC[C@H](NC(=O)c3nccc4ccccc34)C(=O)N12 [form B, 1S-[1alpha (2R, 3S), 9alpha]6,10-dioxo-N-(2-ethoxy-5-oxo-tetrahydro-3-furanyl)-9[[(1-isoquinolyl)carbony]amino]octahydro-6H-pyridazino[1,2-a][1,2]diazepin-1-carboxamide] | −0.11 | 0.00 | 1.42 | 1.41 | 2.33 | 2.36 | 3.14 | 3.23 | 3.75 | 3.88 | 4.13 | 4.26 | 4.40 | 4.53 | 4.75 | 4.92 | 5.08 | 5.27 | 5.30 | 5.45 | Desorption ([1]; RH 90.0 %): 5.96; Sorption ([1]; RH 90.0 %): 5.93; Desorption ([1]; RH 96.0 %): 6.86; Sorption ([1]; RH 96.0 %): 6.86; Absorption of water [2]: 7%; Hygroscopicity (in words) [2]: more hygroscopic |
